`O=C1N(N2CCCCC2)c2ccccc2C1(Cc1ccccc1)c1ccccc1` (centres undefined) came in with a melting point of 114 to 116 °C. The value for `CCCN(CCC)CCc1ccc(O)c2[nH]ncc12` was 125 to 127 °C; that for `CCc1nn(-c2cc(NC(=O)c3ccccc3)ccc2Br)c(=O)n1Cc1ccc(-c2ccccc2S(=O)(=O)NC(=O)OC(C)(C)C)cc1F` was 154 to 156 °C. Consider `CSc1nc2cc(-c3cccnc3)cc(N)n2n1`, for which the melting point was 161 to 163 °C. `CCON=C(C(N)=O)C(=O)OC`: the melting point was 68 to 71 °C. The value for `CC(C)(C)OC(=O)N1CCc2c(n(CC(=O)Nc3ccccc3)c3ccc(Cl)c(Cl)c23)CC1` was 208 to 210 °C.

In the case of `O=C(NC1(C2CC2)CC1)c1c(NC(=O)c2cc(Cl)nn2-c2ncccc2Cl)c(Cl)cc2cn[nH]c12`, the melting point is 173 to 175 °C.

With `OC1CSC(Oc2cccnc2-c2ccco2)C(O)C1O` (centres undefined), the melting point came out at 184 °C. Regarding `O=[N+]([O-])c1cc([N+](=O)[O-])c2[nH]c(C(F)(F)F)nc2c1N1CCCCC1`, the melting point was in the range of 207 to 209 °C. With `CNC(=O)Nc1snc(OC(C)C)c1C#N` the figure was 238 °C. The value for `COc1cc(C(=O)C(=O)O)cc(OC)c1OCCOc1ccc2ccccc2c1` was 114 to 116 °C; that for `O=C(Nc1ccc2nc(S)[nH]c2c1)C(=O)N1CCC(Cc2ccc(F)cc2)CC1` was 286 to 288 °C; that for `CCOC(=O)C1=C(COCC=NO)NC(C)=C(C(=O)OC)C1c1ccccc1Cl` (centres undefined) was 161 to 162 °C. On to `O=C(/C=C/c1ccc(C(=O)Nc2cccc(Nc3nc(-c4cccnc4)cs3)c2)cc1)NOC1CCCCO1` (centres undefined), for which the melting point stood at 158 °C. With `CCN1c2ncc(C=Cc3cccc(F)c3)cc2C(=O)N(C)c2ccc(Cl)nc21`, the melting point is 130 to 131 °C.

With `O=C(c1ccc([N+](=O)[O-])cc1)N1Cc2ccccc2Cc2cc(Cl)ccc21`, the melting point is 198 to 201 °C. With `O=Cc1ccc2c(c1)Sc1ccccc1C=C2` the figure was 114 to 116 °C; with `CC(CCC(=O)O)C1CCC2C3CCC4CC(OC=O)CCC4(C)C3CC(OC=O)C12C` (centres undefined), 123 to 125 °C. With `Cc1ccc(C(=O)Nc2c[nH]nc2C(=O)NCCC#N)cn1` the figure was 201 to 203 °C; with `Cc1cc(N2C(=O)N(CCCCCN3C(=O)N(c4ccc([N+](=O)[O-])c(C)c4)C(=O)C3(C)C)C(C)(C)C2=O)ccc1[N+](=O)[O-]`, 130 to 131 °C. The value for `CCCCCCCCCCCCCCCCCCS(=O)(=O)c1cc(C(=O)O)c([N+](=O)[O-])c(C(=O)O)c1` was 203 to 205 °C; that for `CCOCc1nc2c(N)nc3ccccc3c2n1CC1(NC(=O)OC(C)(C)C)CCCCC1` was 82 to 92 °C. For the compound `COc1cc2c(cc1OC)N(C(N)=O)C(=O)C2`, the melting point lay within 206 to 209 °C. The compound `NC(=O)N(O)CCOCc1ccsc1` gave a melting point of 99 to 100 °C. With `Cc1cc(Cl)cc(C(=O)NCC2CC2)c1N` the figure was 127 to 128 °C; with `Cc1ccc2ccc3ccccc3c(=O)c2c1`, 81 to 83 °C; with `CC(C)(C)OC(=O)NCC1CCc2cc(O)ccc2C1` (centres undefined), 114 °C. `CCOC(=O)CN1CCN(c2ccc(C#N)cc2)CC1=O` yielded a melting point of 108 °C.

Consider `N#Cc1ccc2c(c1)c1c(n2Cc2cccc(F)n2)CCC(NC(=O)C2CC2)C1` (centres undefined), for which the melting point lay within 243 to 245 °C. With `OC(CCCN1CC=C(c2noc(C3CC3)n2)CC1)c1ccc(F)cc1` (centres undefined) the figure was 89 to 92 °C; with `CCOC(=O)C1=C(C)NC(C)=C(C(=O)OCCSc2ccccc2)C1C` (centres undefined), 143 to 145 °C.

For the compound `COc1ccc2c(c1)c(CC(=O)OCC(=O)O)c(C)n2C(=O)c1ccccc1F`, the melting point lay in the range of 172 to 173 °C. The value for `Cc1ccc([C@H](CC(=O)O)NC(=O)Nc2c(OCc3ccccc3)cc(C)n(Cc3ccccc3)c2=O)cc1` was 124 to 126 °C; that for `Cc1sc(CCc2ccc(/C=C/CO)cc2)nc1-c1ccccc1` was 93 to 94 °C.

These data come from a melting point compilation (Tetko et al.; mined from patent text by program, amines drawn as free bases though some values may be those of a salt).
